Data published in the supplement of paper PMC11451515.

Tests used:
Details in all cases: 48 h
SEM cells [1] = experiment: AUC of viability dose-response curve (% viability x log10 dose units); higher = less sensitive
In short: (§1)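 Viability of medium-adapted leukemia cells was measured by CellTiter-Glo One luminescence after 48 h at 37°C with library compounds in DMSO. Doses were 11 threefold steps from 47 μM to 0.79 nM, in 1536-well plates at 500 or 1000 cells/well. Signals were normalised per plate to DMSO and cell-free wells and fitted with a four-parameter log-logistic model on log10 dose. Area under the curve was integrated by trapezoidal rule, with curves exceeding full viability scaled and failed quality-control curves removed.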

P12-Ichikawa [2] = experiment: as above
In short: as §1

NOMO1 [3] = experiment: as above
In short: as §1

SEM cells [4] = experiment: cell viability relative to DMSO control; higher = less cytotoxic
In short: (§2)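 In 1536-well plates, 5 μl of leukemia cells were seeded per well: 500 cells/well for NOMO1 or SEM and 1000 cells/well for P12-Ichikawa. Each line had first been adapted for at least four passages in each medium. Library compounds in DMSO were pin-dosed at 11 threefold concentrations between 47 μM and 0.79 nM, and CellTiter-Glo One luminescence was read after 48 h at 37°C. Viability is a per-plate percentage relative to DMSO wells, with cell-free wells as background.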

P12-Ichikawa [5] = experiment: as above
In short: as §2

NOMO1 [6] = experiment: as above
In short: as §2

Nc1nc(OCc2ccccc2)c2nc[nH]c2n1
AUC of viability dose-response curve
Details | NOMO1 [3] | P12-Ichikawa [2] | SEM cells [1]
HPLM + 10% dialyzed FBS | 462 | 472 | 452
RPMI 5 mM glucose + 10% FBS | 459 | 470 | 429
RPMI 5 mM glucose + 10% dialyzed FBS | 465 | 471 | 454

cell viability [%]
Details | NOMO1 [6] | P12-Ichikawa [5] | SEM cells [4]
HPLM + 10% dialyzed FBS, 0.000781 µM | – | 108 | 99.9
HPLM + 10% dialyzed FBS, 0.00234 µM | – | 110 | 107
HPLM + 10% dialyzed FBS, 0.00702 µM | – | 117 | 114
HPLM + 10% dialyzed FBS, 0.0211 µM | – | 115 | 112
HPLM + 10% dialyzed FBS, 0.0632 µM | – | 120 | 112
HPLM + 10% dialyzed FBS, 0.19 µM | – | 120 | 124
HPLM + 10% dialyzed FBS, 0.569 µM | – | 120 | 114
HPLM + 10% dialyzed FBS, 1.71 µM | – | 118 | 115
HPLM + 10% dialyzed FBS, 5.12 µM | – | 114 | 115
HPLM + 10% dialyzed FBS, 15.4 µM | – | 112 | 105
HPLM + 10% dialyzed FBS, 46.1 µM | – | 113 | 127
RPMI 5 mM glucose + 10% FBS, 0.000781 µM | 95.7 | 97.9 | 82
RPMI 5 mM glucose + 10% FBS, 0.00234 µM | 117 | 107 | 101
RPMI 5 mM glucose + 10% FBS, 0.00702 µM | 103 | 120 | 84.5
RPMI 5 mM glucose + 10% FBS, 0.0211 µM | 109 | 117 | 92.3
RPMI 5 mM glucose + 10% FBS, 0.0632 µM | 113 | 124 | 103
RPMI 5 mM glucose + 10% FBS, 0.19 µM | 101 | 111 | 97.5
RPMI 5 mM glucose + 10% FBS, 0.569 µM | 133 | 114 | 89.4
RPMI 5 mM glucose + 10% FBS, 1.71 µM | 107 | 118 | 78.4
RPMI 5 mM glucose + 10% FBS, 5.12 µM | 108 | 120 | 93.8
RPMI 5 mM glucose + 10% FBS, 15.4 µM | 108 | 120 | 76.7
RPMI 5 mM glucose + 10% FBS, 46.1 µM | 115 | 111 | 88.9
RPMI 5 mM glucose + 10% dialyzed FBS, 0.000781 µM | 110 | 105 | 90.2
RPMI 5 mM glucose + 10% dialyzed FBS, 0.00234 µM | 119 | 114 | 102
RPMI 5 mM glucose + 10% dialyzed FBS, 0.00702 µM | 123 | 119 | 109
RPMI 5 mM glucose + 10% dialyzed FBS, 0.0211 µM | 118 | 117 | 103
RPMI 5 mM glucose + 10% dialyzed FBS, 0.0632 µM | 128 | 121 | 104
RPMI 5 mM glucose + 10% dialyzed FBS, 0.19 µM | 125 | 117 | 112
RPMI 5 mM glucose + 10% dialyzed FBS, 0.569 µM | 122 | 122 | 98.6
RPMI 5 mM glucose + 10% dialyzed FBS, 1.71 µM | 110 | 120 | 86.6
RPMI 5 mM glucose + 10% dialyzed FBS, 5.12 µM | 116 | 121 | 94.5
RPMI 5 mM glucose + 10% dialyzed FBS, 15.4 µM | 129 | 120 | 76.1
RPMI 5 mM glucose + 10% dialyzed FBS, 46.1 µM | 123 | 119 | 103

Cc1cn(CCN2CCN(c3ccccc3-c3cc(C#N)cc(C(=O)NCCCN4CCCC4)c3)CC2)c2ccccc12
AUC of viability dose-response curve
Details | NOMO1 [3] | P12-Ichikawa [2] | SEM cells [1]
HPLM + 10% dialyzed FBS | 406 | 402 | 407
RPMI 5 mM glucose + 10% FBS | 424 | 409 | 401
RPMI 5 mM glucose + 10% dialyzed FBS | 421 | 409 | 424

cell viability [%]
Details | NOMO1 [6] | P12-Ichikawa [5] | SEM cells [4]
HPLM + 10% dialyzed FBS, 0.000781 µM | 103 | 110 | 103
HPLM + 10% dialyzed FBS, 0.00234 µM | 111 | 109 | 103
HPLM + 10% dialyzed FBS, 0.00702 µM | 111 | 106 | 94.9
HPLM + 10% dialyzed FBS, 0.0211 µM | 121 | 104 | 97.1
HPLM + 10% dialyzed FBS, 0.0632 µM | 148 | 109 | 99.9
HPLM + 10% dialyzed FBS, 0.19 µM | 130 | 115 | 101
HPLM + 10% dialyzed FBS, 0.569 µM | 127 | 119 | 112
HPLM + 10% dialyzed FBS, 1.71 µM | 134 | 120 | 102
HPLM + 10% dialyzed FBS, 5.12 µM | 85.3 | 91.2 | 73.2
HPLM + 10% dialyzed FBS, 15.4 µM | 35.3 | 8.78 | 23.8
HPLM + 10% dialyzed FBS, 46.1 µM | 10.7 | 6.19 | 18.3
RPMI 5 mM glucose + 10% FBS, 0.000781 µM | 102 | 107 | –
RPMI 5 mM glucose + 10% FBS, 0.00234 µM | 110 | 107 | –
RPMI 5 mM glucose + 10% FBS, 0.00702 µM | 115 | 103 | –
RPMI 5 mM glucose + 10% FBS, 0.0211 µM | 109 | 115 | –
RPMI 5 mM glucose + 10% FBS, 0.0632 µM | 125 | 118 | –
RPMI 5 mM glucose + 10% FBS, 0.19 µM | 119 | 118 | –
RPMI 5 mM glucose + 10% FBS, 0.569 µM | 119 | 124 | –
RPMI 5 mM glucose + 10% FBS, 1.71 µM | 112 | 103 | –
RPMI 5 mM glucose + 10% FBS, 5.12 µM | 108 | 90.8 | –
RPMI 5 mM glucose + 10% FBS, 15.4 µM | 38.4 | 23.2 | –
RPMI 5 mM glucose + 10% FBS, 46.1 µM | 22.7 | 15.6 | –
RPMI 5 mM glucose + 10% dialyzed FBS, 0.000781 µM | 119 | 118 | 104
RPMI 5 mM glucose + 10% dialyzed FBS, 0.00234 µM | 102 | 119 | 116
RPMI 5 mM glucose + 10% dialyzed FBS, 0.00702 µM | 109 | 117 | 116
RPMI 5 mM glucose + 10% dialyzed FBS, 0.0211 µM | 119 | 117 | 101
RPMI 5 mM glucose + 10% dialyzed FBS, 0.0632 µM | 120 | 124 | 117
RPMI 5 mM glucose + 10% dialyzed FBS, 0.19 µM | 110 | 126 | 119
RPMI 5 mM glucose + 10% dialyzed FBS, 0.569 µM | 124 | 128 | 128
RPMI 5 mM glucose + 10% dialyzed FBS, 1.71 µM | 112 | 111 | 113
RPMI 5 mM glucose + 10% dialyzed FBS, 5.12 µM | 96.4 | 93 | 102
RPMI 5 mM glucose + 10% dialyzed FBS, 15.4 µM | 44.5 | 26.9 | 42
RPMI 5 mM glucose + 10% dialyzed FBS, 46.1 µM | 25.5 | 19.9 | 27
